# Experimental data as given in the kinase profiling compilation of Christmann-Franck et al. (2016).
# What was measured:
# Assay in all cases: KINOMEscan competition binding
# Settings in all cases: compound 10.0 µM
# RPS6KA4 KD2 (human) = RPS6KA4 KD2 (human) (UniProt O75676)
# DAPK3 (human) = DAPK3 (human) (UniProt O43293)
# STK17B (human) = STK17B (human) (UniProt O94768)
# DAPK2 (human) = DAPK2 (human) (UniProt Q9UIK4)
# PIM3 (human) = PIM3 (human) (UniProt Q86V86)
# PIM2 (human) = PIM2 (human) (UniProt Q9P1W9)
# PIM2 (human), sequence (Q9P1W9 whole entry, looked up): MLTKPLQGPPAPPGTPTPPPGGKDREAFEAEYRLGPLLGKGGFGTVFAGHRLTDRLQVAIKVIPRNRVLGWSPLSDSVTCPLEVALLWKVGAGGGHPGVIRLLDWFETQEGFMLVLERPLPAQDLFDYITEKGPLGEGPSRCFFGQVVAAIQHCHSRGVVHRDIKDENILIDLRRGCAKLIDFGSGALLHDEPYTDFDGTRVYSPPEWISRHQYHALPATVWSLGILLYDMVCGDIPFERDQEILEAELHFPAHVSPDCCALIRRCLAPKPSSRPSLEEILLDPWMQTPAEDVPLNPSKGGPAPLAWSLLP
# [1] = biological target: TYK2 JH2 pseudokinase (human) (UniProt P29597)
# ZAP70 (human) = ZAP70 (human) (UniProt P43403)
# DAPK1 (human) = DAPK1 (human) (UniProt P53355)
# PIK3CB (human) = PIK3CB (human) (UniProt P42338)
# NEK2 (human) = NEK2 (human) (UniProt P51955)
# MAPK15 (human) = MAPK15 (human) (UniProt Q8TD08)
# RPS6KA5 KD2 (human) = RPS6KA5 KD2 (human) (UniProt O75582)
# MINK1 (human) = MINK1 (human) (UniProt Q8N4C8)
# MINK1 (human), sequence (Q8N4C8 whole entry, looked up): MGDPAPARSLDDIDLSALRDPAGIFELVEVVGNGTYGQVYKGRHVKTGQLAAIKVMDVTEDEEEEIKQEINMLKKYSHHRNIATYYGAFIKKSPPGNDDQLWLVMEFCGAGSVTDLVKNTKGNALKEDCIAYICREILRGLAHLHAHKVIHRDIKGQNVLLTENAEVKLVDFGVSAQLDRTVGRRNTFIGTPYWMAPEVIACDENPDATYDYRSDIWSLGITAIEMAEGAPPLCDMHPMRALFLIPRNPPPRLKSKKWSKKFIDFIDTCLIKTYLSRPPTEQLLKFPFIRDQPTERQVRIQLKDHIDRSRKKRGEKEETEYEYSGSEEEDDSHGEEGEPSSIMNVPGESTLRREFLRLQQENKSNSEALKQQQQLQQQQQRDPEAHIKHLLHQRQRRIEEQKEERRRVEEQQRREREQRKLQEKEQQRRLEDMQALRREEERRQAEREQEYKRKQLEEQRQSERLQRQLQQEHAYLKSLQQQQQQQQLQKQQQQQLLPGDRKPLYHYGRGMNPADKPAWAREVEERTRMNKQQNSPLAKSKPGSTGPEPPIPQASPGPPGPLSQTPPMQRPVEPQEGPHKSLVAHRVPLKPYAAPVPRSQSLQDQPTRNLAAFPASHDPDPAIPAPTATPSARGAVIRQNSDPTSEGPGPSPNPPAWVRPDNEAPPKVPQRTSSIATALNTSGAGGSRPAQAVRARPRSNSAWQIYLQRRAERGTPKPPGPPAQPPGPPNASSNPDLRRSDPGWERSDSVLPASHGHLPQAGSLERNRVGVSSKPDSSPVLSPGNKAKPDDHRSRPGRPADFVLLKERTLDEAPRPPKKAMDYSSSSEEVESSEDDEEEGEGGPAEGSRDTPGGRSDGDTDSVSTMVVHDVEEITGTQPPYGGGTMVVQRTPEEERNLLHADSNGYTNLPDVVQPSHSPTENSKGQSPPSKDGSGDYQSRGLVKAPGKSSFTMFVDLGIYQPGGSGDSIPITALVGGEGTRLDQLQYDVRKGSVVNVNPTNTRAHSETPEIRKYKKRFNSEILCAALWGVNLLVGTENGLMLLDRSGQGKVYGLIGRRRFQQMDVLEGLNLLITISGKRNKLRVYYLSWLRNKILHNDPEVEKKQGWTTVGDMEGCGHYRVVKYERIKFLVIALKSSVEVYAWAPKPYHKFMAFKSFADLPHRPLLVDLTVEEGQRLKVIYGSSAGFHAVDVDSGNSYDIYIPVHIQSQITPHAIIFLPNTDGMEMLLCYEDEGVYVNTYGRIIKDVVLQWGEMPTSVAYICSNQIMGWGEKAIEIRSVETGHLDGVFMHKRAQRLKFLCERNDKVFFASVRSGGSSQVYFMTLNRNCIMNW
# STK17A (human) = STK17A (human) (UniProt Q9UEE5)
# DYRK1B (human) = DYRK1B (human) (UniProt Q9Y463)
# SRPK3 (human) = SRPK3 (human) (UniProt Q9UPE1)
# RIOK1 (human) = RIOK1 (human) (UniProt Q9BRS2)
# PIP4K2B (human) = PIP4K2B (human) (UniProt P78356)
# RIOK3 (human) = RIOK3 (human) (UniProt O14730)
# TAOK1 (human) = TAOK1 (human) (UniProt Q7L7X3)
# CDK7 (human) = CDK7 (human) (UniProt P50613)
# CLK3 (human) = CLK3 (human) (UniProt P49761)
# PLK4 (human) = PLK4 (human) (UniProt O00444)
# TAOK3 (human) = TAOK3 (human) (UniProt Q9H2K8)
# MAP2K3 (human) = MAP2K3 (human) (UniProt P46734)
# CLK2 (human) = CLK2 (human) (UniProt P49760)
# BMPR1B (human) = BMPR1B (human) (UniProt O00238)
# CSNK2A1 (human) = CSNK2A1 (human) (UniProt P68400)
# CHUK (human) = CHUK (human) (UniProt O15111)
# PIM1 (human) = PIM1 (human) (UniProt P11309)
# CLK4 (human) = CLK4 (human) (UniProt Q9HAZ1)
# HIPK1 (human) = HIPK1 (human) (UniProt Q86Z02)
# ACVR2B (human) = ACVR2B (human) (UniProt Q13705)
# BMP2K (human) = BMP2K (human) (UniProt Q9NSY1)
# ACVR2A (human) = ACVR2A (human) (UniProt P27037)
# CLK1 (human) = CLK1 (human) (UniProt P49759)
# MAP2K4 (human) = MAP2K4 (human) (UniProt P45985)
# AAK1 (human) = AAK1 (human) (UniProt Q2M2I8)
# CSNK2A2 (human) = CSNK2A2 (human) (UniProt P19784)
# MYLK (human) = MYLK (human) (UniProt Q15746)
# [2] = tested on: EGFR (human), P00533 [L861Q]
# [3] = tested on: EGFR (human), P00533 [752-759 del]
# PTK2B (human) = PTK2B (human) (UniProt Q14289)
# PTK2B (human), sequence (Q14289 whole entry, looked up): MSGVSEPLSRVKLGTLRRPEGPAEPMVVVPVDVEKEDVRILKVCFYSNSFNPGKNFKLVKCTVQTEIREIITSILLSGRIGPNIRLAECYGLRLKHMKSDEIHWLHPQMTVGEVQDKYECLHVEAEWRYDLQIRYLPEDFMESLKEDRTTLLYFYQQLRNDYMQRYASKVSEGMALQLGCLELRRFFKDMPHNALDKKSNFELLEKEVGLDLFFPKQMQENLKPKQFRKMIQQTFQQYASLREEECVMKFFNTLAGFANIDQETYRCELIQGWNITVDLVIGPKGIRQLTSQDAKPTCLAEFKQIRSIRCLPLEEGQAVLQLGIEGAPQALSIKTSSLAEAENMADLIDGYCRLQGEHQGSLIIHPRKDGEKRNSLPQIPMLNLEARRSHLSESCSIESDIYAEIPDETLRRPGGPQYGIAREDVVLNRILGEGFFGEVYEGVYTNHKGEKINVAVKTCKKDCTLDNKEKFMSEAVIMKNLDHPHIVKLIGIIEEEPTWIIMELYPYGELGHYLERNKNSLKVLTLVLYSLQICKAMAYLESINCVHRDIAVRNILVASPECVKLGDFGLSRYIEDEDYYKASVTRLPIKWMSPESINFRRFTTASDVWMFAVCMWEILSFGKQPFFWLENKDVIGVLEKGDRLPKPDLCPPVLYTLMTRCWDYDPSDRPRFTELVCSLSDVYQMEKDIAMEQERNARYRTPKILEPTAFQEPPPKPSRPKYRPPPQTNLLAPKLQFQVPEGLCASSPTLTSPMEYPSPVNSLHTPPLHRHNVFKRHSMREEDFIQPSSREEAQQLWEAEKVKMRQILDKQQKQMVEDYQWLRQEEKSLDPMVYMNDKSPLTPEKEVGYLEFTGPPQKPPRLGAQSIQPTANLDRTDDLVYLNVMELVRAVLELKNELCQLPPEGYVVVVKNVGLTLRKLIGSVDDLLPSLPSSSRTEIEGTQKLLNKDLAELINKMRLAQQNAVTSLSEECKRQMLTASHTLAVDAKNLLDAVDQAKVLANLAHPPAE
# RPS6KA2 KD2 (human) = RPS6KA2 KD2 (human) (UniProt Q15349)
# RPS6KA2 KD2 (human), sequence (Q15349 whole entry, looked up): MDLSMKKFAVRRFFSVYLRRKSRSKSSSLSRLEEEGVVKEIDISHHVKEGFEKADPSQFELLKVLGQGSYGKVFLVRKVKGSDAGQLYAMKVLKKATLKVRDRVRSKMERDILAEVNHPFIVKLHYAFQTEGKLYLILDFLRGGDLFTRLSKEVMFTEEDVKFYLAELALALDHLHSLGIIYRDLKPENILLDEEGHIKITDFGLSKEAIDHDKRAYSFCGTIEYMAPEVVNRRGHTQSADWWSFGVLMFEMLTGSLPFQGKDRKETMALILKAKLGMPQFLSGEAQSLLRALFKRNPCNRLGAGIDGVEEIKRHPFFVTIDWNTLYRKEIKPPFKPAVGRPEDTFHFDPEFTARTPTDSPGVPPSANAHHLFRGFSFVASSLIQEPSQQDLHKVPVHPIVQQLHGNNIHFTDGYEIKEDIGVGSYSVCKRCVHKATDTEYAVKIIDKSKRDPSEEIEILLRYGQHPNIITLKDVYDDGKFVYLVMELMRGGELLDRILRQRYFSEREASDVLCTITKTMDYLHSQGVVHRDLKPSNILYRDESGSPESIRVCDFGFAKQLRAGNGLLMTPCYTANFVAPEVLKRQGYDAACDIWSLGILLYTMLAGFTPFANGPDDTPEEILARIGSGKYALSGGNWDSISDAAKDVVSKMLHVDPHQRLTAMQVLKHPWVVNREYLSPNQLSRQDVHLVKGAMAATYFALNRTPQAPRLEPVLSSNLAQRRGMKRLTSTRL
# PLK1 (human) = PLK1 (human) (UniProt P53350)
# ALK (human) = ALK (human) (UniProt Q9UM73)
# SLK (human) = SLK (human) (UniProt Q9H2G2)
# STK33 (human) = STK33 (human) (UniProt Q9BYT3)
# PLK3 (human) = PLK3 (human) (UniProt Q9H4B4)
# [4] = tested on: EGFR (human), P00533 [L858R]
# GAK (human) = GAK (human) (UniProt O14976)
# TTK (human) = TTK (human) (UniProt P33981)
# [5] = tested on: EGFR (human), P00533 [G719C; 746-750 del]
# PTK2 (human) = PTK2 (human) (UniProt Q05397)
# PTK2 (human), sequence (Q05397 whole entry, looked up): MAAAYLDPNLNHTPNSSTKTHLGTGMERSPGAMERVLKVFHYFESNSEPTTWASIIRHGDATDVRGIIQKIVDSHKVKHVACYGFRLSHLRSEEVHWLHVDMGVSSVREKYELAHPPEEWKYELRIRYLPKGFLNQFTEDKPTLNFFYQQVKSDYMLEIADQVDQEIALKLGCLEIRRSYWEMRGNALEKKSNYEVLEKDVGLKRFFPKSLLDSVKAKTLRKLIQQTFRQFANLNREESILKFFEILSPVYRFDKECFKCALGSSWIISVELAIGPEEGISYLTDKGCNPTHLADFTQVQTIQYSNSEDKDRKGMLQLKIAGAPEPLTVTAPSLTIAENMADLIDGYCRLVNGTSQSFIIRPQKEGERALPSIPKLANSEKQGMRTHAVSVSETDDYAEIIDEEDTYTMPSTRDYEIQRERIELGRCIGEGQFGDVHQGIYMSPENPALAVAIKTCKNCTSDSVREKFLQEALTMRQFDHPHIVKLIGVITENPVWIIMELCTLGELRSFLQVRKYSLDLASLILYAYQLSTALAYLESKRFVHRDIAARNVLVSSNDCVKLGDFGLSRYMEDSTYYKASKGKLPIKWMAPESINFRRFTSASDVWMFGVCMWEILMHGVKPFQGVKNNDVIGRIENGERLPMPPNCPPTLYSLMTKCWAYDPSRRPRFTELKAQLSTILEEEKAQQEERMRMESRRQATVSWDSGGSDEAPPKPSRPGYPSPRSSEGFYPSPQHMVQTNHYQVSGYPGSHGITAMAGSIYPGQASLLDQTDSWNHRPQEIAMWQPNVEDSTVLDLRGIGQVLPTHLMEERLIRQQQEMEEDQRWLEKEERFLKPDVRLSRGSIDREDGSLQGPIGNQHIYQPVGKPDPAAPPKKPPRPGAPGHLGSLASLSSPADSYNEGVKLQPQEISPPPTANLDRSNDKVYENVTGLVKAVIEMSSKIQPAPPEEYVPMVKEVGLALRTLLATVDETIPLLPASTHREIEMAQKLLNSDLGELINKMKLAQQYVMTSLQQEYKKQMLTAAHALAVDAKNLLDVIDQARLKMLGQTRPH
# RPS6KA1 KD2 (human) = RPS6KA1 KD2 (human) (UniProt Q15418)
# [6] = tested on: EGFR (human), P00533 [747-751 del / S ins]
# [7] = tested on: EGFR (human), P00533 [P753S; 747-752 del]
# [8] = tested on: EGFR (human), P00533 [A750P; 747-749 del]
# PRKD1 (human) = PRKD1 (human) (UniProt Q15139)
# FER (human) = FER (human) (UniProt P16591)
# CAMKK2 (human) = CAMKK2 (human) (UniProt Q96RR4)
# PRKD3 (human) = PRKD3 (human) (UniProt O94806)
# ULK1 (human) = ULK1 (human) (UniProt O75385)
# INSRR (human) = INSRR (human) (UniProt P14616)
# PRKD2 (human) = PRKD2 (human) (UniProt Q9BZL6)
# ULK2 (human) = ULK2 (human) (UniProt Q8IYT8)
# DCLK2 (human) = DCLK2 (human) (UniProt Q8N568)
# RPS6KA6 KD2 (human) = RPS6KA6 KD2 (human) (UniProt Q9UK32)
# DCLK1 (human) = DCLK1 (human) (UniProt O15075)
# DAPK3 (human), sequence (O43293 whole entry, looked up): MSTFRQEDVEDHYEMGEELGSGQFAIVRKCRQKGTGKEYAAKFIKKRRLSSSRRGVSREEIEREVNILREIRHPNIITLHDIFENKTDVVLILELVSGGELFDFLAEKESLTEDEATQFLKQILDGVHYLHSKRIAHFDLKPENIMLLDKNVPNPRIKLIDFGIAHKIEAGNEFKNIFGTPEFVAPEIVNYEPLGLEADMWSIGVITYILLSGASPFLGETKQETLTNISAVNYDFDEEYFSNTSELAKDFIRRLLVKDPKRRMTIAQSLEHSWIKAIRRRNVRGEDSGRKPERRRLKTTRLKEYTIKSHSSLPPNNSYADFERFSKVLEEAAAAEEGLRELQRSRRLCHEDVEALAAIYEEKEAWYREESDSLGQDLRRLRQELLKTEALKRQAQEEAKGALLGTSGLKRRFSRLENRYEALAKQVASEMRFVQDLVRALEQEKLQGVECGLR
smiles,measurement,setting,value
O=C1NC(=O)/C(=C/c2cc(-c3ccc(N4CCNCC4)nc3)c[nH]c2=O)S1,"kinase still bound, per cent of control",RPS6KA4 KD2 (human),3.2%
same,"kinase still bound, per cent of control",DAPK3 (human),10%
same,"kinase still bound, per cent of control",STK17B (human),18%
same,"kinase still bound, per cent of control",DAPK2 (human),10%
same,"kinase still bound, per cent of control",PIM3 (human),30%
same,"kinase still bound, per cent of control",PIM2 (human),14%
same,"kinase still bound, per cent of control",[1],14%
same,"kinase still bound, per cent of control",ZAP70 (human),11%
same,"kinase still bound, per cent of control",DAPK1 (human),4.4%
same,"kinase still bound, per cent of control",PIK3CB (human),6.2%
N=C1NC(=O)/C(=C/c2c[nH]c(=O)c(-c3ccc(S(N)(=O)=O)cc3)c2)S1,"kinase still bound, per cent of control",NEK2 (human),30%
same,"kinase still bound, per cent of control",MAPK15 (human),3.3%
same,"kinase still bound, per cent of control",RPS6KA5 KD2 (human),2.2%
same,"kinase still bound, per cent of control",MINK1 (human),24%
same,"kinase still bound, per cent of control",RPS6KA4 KD2 (human),0.9%
same,"kinase still bound, per cent of control",STK17A (human),23%
same,"kinase still bound, per cent of control",DYRK1B (human),23%
same,"kinase still bound, per cent of control",SRPK3 (human),33%
same,"kinase still bound, per cent of control",RIOK1 (human),31%
same,"kinase still bound, per cent of control",PIP4K2B (human),22%
same,"kinase still bound, per cent of control",RIOK3 (human),17%
same,"kinase still bound, per cent of control",DAPK3 (human),9.4%
same,"kinase still bound, per cent of control",STK17B (human),28%
same,"kinase still bound, per cent of control",TAOK1 (human),4.2%
same,"kinase still bound, per cent of control",CDK7 (human),26%
same,"kinase still bound, per cent of control",CLK3 (human),3.5%
same,"kinase still bound, per cent of control",PLK4 (human),24%
same,"kinase still bound, per cent of control",TAOK3 (human),22%
same,"kinase still bound, per cent of control",MAP2K3 (human),2.2%
same,"kinase still bound, per cent of control",DAPK2 (human),5.2%
same,"kinase still bound, per cent of control",CLK2 (human),5.1%
same,"kinase still bound, per cent of control",PIM3 (human),12%
same,"kinase still bound, per cent of control",BMPR1B (human),5.7%
same,"kinase still bound, per cent of control",PIM2 (human),4.8%
same,"kinase still bound, per cent of control",CSNK2A1 (human),26%
same,"kinase still bound, per cent of control",CHUK (human),18%
same,"kinase still bound, per cent of control",PIM1 (human),16%
same,"kinase still bound, per cent of control",CLK4 (human),28%
same,"kinase still bound, per cent of control",HIPK1 (human),16%
same,"kinase still bound, per cent of control",ACVR2B (human),16%
same,"kinase still bound, per cent of control",BMP2K (human),13%
same,"kinase still bound, per cent of control",ACVR2A (human),25%
same,"kinase still bound, per cent of control",CLK1 (human),16%
same,"kinase still bound, per cent of control",DAPK1 (human),12%
same,"kinase still bound, per cent of control",MAP2K4 (human),24%
same,"kinase still bound, per cent of control",AAK1 (human),13%
same,"kinase still bound, per cent of control",CSNK2A2 (human),25%
COc1cc(C(=O)NC2CCN(C)CC2)ccc1Nc1ncc2c(n1)N(CCc1ccccc1)CCC(=O)N2C,"kinase still bound, per cent of control",MYLK (human),31%
same,"kinase still bound, per cent of control",[2],28%
same,"kinase still bound, per cent of control",[3],33%
same,"kinase still bound, per cent of control",PTK2B (human),17%
same,"kinase still bound, per cent of control",RPS6KA2 KD2 (human),32%
same,"kinase still bound, per cent of control",PLK1 (human),1.9%
same,"kinase still bound, per cent of control",ALK (human),22%
same,"kinase still bound, per cent of control",SLK (human),22%
same,"kinase still bound, per cent of control",STK33 (human),13%
same,"kinase still bound, per cent of control",PLK3 (human),6.5%
same,"kinase still bound, per cent of control",[4],22%
same,"kinase still bound, per cent of control",GAK (human),6.4%
same,"kinase still bound, per cent of control",TTK (human),5.2%
same,"kinase still bound, per cent of control",[5],23%
same,"kinase still bound, per cent of control",PTK2 (human),34%
same,"kinase still bound, per cent of control",RPS6KA1 KD2 (human),32%
same,"kinase still bound, per cent of control",[6],28%
same,"kinase still bound, per cent of control",[7],31%
same,"kinase still bound, per cent of control",[8],19%
COc1cc(N2CCN(C)CC2)ccc1Nc1ncc2c(n1)N(C1CCCC1)C(C)CC(=O)N2C (centres undefined),"kinase still bound, per cent of control",MINK1 (human),31%
same,"kinase still bound, per cent of control",PRKD1 (human),24%
same,"kinase still bound, per cent of control",MYLK (human),7.6%
same,"kinase still bound, per cent of control",FER (human),25%
same,"kinase still bound, per cent of control",PTK2B (human),4.6%
same,"kinase still bound, per cent of control",RPS6KA2 KD2 (human),12%
same,"kinase still bound, per cent of control",CAMKK2 (human),24%
same,"kinase still bound, per cent of control",PLK1 (human),9%
same,"kinase still bound, per cent of control",ALK (human),6.6%
same,"kinase still bound, per cent of control",SLK (human),3.6%
same,"kinase still bound, per cent of control",PRKD3 (human),14%
same,"kinase still bound, per cent of control",STK33 (human),5.4%
same,"kinase still bound, per cent of control",ULK1 (human),19%
same,"kinase still bound, per cent of control",PLK3 (human),20%
same,"kinase still bound, per cent of control",GAK (human),1.2%
same,"kinase still bound, per cent of control",INSRR (human),33%
same,"kinase still bound, per cent of control",TTK (human),1.4%
same,"kinase still bound, per cent of control",PTK2 (human),0.95%
same,"kinase still bound, per cent of control",PRKD2 (human),29%
same,"kinase still bound, per cent of control",ULK2 (human),1.3%
same,"kinase still bound, per cent of control",DCLK2 (human),4.5%
same,"kinase still bound, per cent of control",RPS6KA6 KD2 (human),16%
same,"kinase still bound, per cent of control",DCLK1 (human),1.4%
